Consider 21 compounds from patent publication US8158647B2, “Substituted pyrrolopyridines and pyrazolopyridines as kinase modulators” (SGX Pharmaceuticals, Inc., priority 2007, dated 2012).

One assay concerns the target T1, ABL T315I BAF3 cells (Homo sapiens, UniProt P00519, T315I, cells depend on it).
T1 construct: ABL T315I BAF3; fused on or other part: P11274 (Breakpoint cluster region protein)
Briefly: 96-well XTT cell survival assay, BaF3 ABL T315I. It counts as cell-based. The conditions noted are these: 72 hours, read-out: CELL BIO ABL T315I BAF3 XTT (IC50). Put shortly:
(§1)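 Ba/F3 cells in RPMI 1640 with 10% FBS (IL-3 medium for maintenance) were seeded at 5000-8000 cells/well and exposed to compound dilutions in duplicate for 72 h at 37° C. Viability read by XTT/PMS, absorbance 405 nm minus 650 nm after 2-6 h.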

In the next assay the target is T2, ABL P210WT BAF3 cells (Homo sapiens, UniProt P00519).
T2 construct: ABL P210WT BAF3; fused on or other part: P11274 (Breakpoint cluster region protein)
Nature of the assay: 96-well XTT cell survival assay, BaF3 ABL P210WT. Type of assay: cell-based. The conditions noted are these: ABL P210 WT, 72 hours, read-out: CELL BIO ABL P210WT BAF3 XTT (IC50). The gist of the method:
as §1
A general note: Formazan colour is commonly taken as a measure of viable cells.

For assay [1], the target named is T3, purified and unphosphorylated T315I Abl kinase domain (ABL_T315I_0P) (Mus musculus, UniProt P00520, T315I).
T3 construct: The c-Abl T3151 KD (kinase domain) was purified as follows; Met-Ser-Leu (vector-derived residues) (N); made in house; host or cells: E. coli BL21(DE3) strains (Codon+RIL, or pSA0145 for the lambda phosphatase co-expression plasmid)
T3 sequence (P00520 242-493 T315I limits assumed): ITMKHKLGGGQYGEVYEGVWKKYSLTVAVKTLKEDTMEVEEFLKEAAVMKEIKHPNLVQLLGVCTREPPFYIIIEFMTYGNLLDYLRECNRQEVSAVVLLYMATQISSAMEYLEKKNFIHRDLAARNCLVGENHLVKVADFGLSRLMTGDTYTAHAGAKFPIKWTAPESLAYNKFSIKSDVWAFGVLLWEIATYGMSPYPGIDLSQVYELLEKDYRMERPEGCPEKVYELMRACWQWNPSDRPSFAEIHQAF
Briefly: c-Abl T315I (unphosphorylated kinase domain) pyruvate kinase/lactate dehydrogenase coupled enzyme assay. The conditions noted are these: 10 μM ATP. Type of assay: biochemical.

For `Nc1ncc(-c2cnc3[nH]cc(-c4cc(F)ccc4F)c3c2Cl)cc1C(=O)N1CCOCC1` [{2-Amino-5-[4-chloro-3-(2,5-difluoro-phenyl)-1H-pyrrolo[2,3-b]pyridin-5-yl]-pyridin-3-yl}-morpholin-4-yl-methanone], the GI50 at ABL T315I BAF3 cells and at ABL P210WT BAF3 cells was 0.1 to 1 µM each time. The “ABL_T315I_0P (IC50)” value in assay [1] was “D (<0.01 μM)”.
`CNc1c(-c2cncc(C(O)C(=O)N(C)C)c2)cnc2[nH]cc(-c3ccccc3OC)c12` (stereo not drawn) [2-Hydroxy-2-{5-[3-(2-methoxy-phenyl)-4-methylamino-1H-pyrrolo[2,3-b]pyridin-5-yl]-pyridin-3-yl}-N,N-dimethyl-acetamide]: the GI50 on ABL T315I BAF3 cells and on ABL P210WT BAF3 cells was 0.1 to 1 µM throughout. The “ABL_T315I_0P (IC50)” value in assay [1] is “D (<0.01 μM)”.
For the compound `COc1cnccc1-c1c[nH]c2ncc(-c3cncc(C(O)C(=O)N(C)C)c3)c(Cl)c12` (stereo not drawn) [2-{5-[4-Chloro-3-(3-methoxy-pyridin-4-yl)-1H-pyrrolo[2,3-b]pyridin-5-yl]-pyridin-3-yl}-2-hydroxy-N,N-dimethyl-acetamide], the GI50 at ABL T315I BAF3 cells and at ABL P210WT BAF3 cells was above 1 µM throughout. Besides, the “ABL_T315I_0P (IC50)” value in assay [1] was “D (<0.01 μM)”.
Take `COc1ccccc1-c1c[nH]c2ncc(-c3cccc(C(=O)N(C)C)c3)c(C)c12` [3-[3-(2-Methoxy-phenyl)-4-methyl-1H-pyrrolo[2,3-b]pyridin-5-yl]-N,N-dimethyl-benzamide]: the GI50 at ABL T315I BAF3 cells and at ABL P210WT BAF3 cells was 0.01 to 0.1 µM throughout. Besides, the “ABL_T315I_0P (IC50)” value in assay [1] is recorded as “D (<0.01 μM)”.
On to `COc1cc(F)ccc1-c1c[nH]c2ncc(-c3cnc(N)c(C(=O)N(C)C)c3)c(Cl)c12` [2-Amino-5-[4-chloro-3-(4-fluoro-2-methoxy-phenyl)-1H-pyrrolo[2,3-b]pyridin-5-yl]-N,N-dimethyl-nicotinamide], for which the GI50 on ABL T315I BAF3 cells and at ABL P210WT BAF3 cells was 0.01 to 0.1 µM throughout. Moreover, the “ABL_T315I_0P (IC50)” value in assay [1] is recorded as “D (<0.01 μM)”.
As for `COc1ccccc1-c1c[nH]c2ncc(-c3cccc(C(=O)N(C)C)c3)c(Cl)c12` [3-[4-Chloro-3-(2-methoxy-phenyl)-1H-pyrrolo[2,3-b]pyridin-5-yl]-N,N-dimethyl-benzamide], the GI50 at ABL T315I BAF3 cells and at ABL P210WT BAF3 cells was 0.01 to 0.1 µM throughout. The “ABL_T315I_0P (IC50)” value in assay [1] is given as “D (<0.01 μM)”.
As for `CN(C)C(=O)c1cc(-c2cnc3[nH]cc(-c4ccc5c(c4)CC(=O)N5)c3c2Cl)cnc1N` [2-Amino-5-[4-chloro-3-(2-oxo-2,3-dihydro-1H-indol-5-yl)-1H-pyrrolo[2,3-b]pyridin-5-yl]-N,N-dimethyl-nicotinamide], the values for the GI50 at ABL T315I BAF3 cells and at ABL P210WT BAF3 cells were above 1 µM and 0.1 to 1 µM, respectively. Moreover, in assay [1], the “ABL_T315I_0P (IC50)” value was “D (<0.01 μM)”.
In the same order, the values of `OC(c1cncc(-c2cnc3[nH]cc(-c4ccccc4)c3c2Cl)c1)c1ncccc1F` (stereo not drawn) [[5-(4-Chloro-3-phenyl-1H-pyrrolo[2,3-b]pyridin-5-yl)-pyridin-3-yl]-(3-fluoro-pyridin-2-yl)-methanol] are 0.1 to 1 µM, 0.1 to 1 µM and “D (<0.01 μM)”.
Usually IC50 stands for the concentration at which inhibition is half-maximal. `COc1cc(Cl)c(F)cc1-c1c[nH]c2ncc(-c3cnc(N)c(C(=O)N(C)C)c3)cc12`: the GI50 at ABL T315I BAF3 cells was 0.01 to 0.1 µM; on ABL P210WT BAF3 cells, below 0.01 µM. This compound also came in with a half-maximal inhibitory concentration (IC50) in assay [1] below 0.01 µM.
`NC(=O)C(O)c1cncc(-c2cnc3[nH]cc(-c4ccccc4F)c3c2Cl)c1` (stereo not drawn): the GI50 at ABL T315I BAF3 cells and on ABL P210WT BAF3 cells was above 1 µM each time. Moreover, the “ABL_T315I_0P (IC50)” value in assay [1] was “D (<0.01 μM)”.
For `COc1ccc(C(F)(F)F)cc1-c1c[nH]c2ncc(-c3cnc(N)c(C(=O)N(C)C)c3)c(Cl)c12` [2-Amino-5-[4-chloro-3-(2-methoxy-5-trifluoromethyl-phenyl)-1H-pyrrolo[2,3-b]pyridin-5-yl]-N,N-dimethyl-nicotinamide], the GI50 at ABL T315I BAF3 cells and at ABL P210WT BAF3 cells was 0.1 to 1 µM in each case. Moreover, in assay [1], the “ABL_T315I_0P (IC50)” value is reported as “D (<0.01 μM)”.
For the compound `CN(C)C(=O)c1cncc(-c2cnc3[nH]nc(-c4ccccc4)c3c2Cl)c1` [5-(4-Chloro-3-phenyl-1H-pyrazolo[3,4-b]pyridin-5-yl)-N,N-dimethyl-nicotinamide], the GI50 at ABL T315I BAF3 cells and on ABL P210WT BAF3 cells was above 1 µM in each case. The “ABL_T315I_0P (IC50)” value in assay [1] was “B (1.0-0.1 μM)”.
Take `COc1ccccc1-c1c[nH]c2ncc(-c3cncc(C(O)C(=O)N(C)C)c3)c(C)c12` (stereo not drawn) [2-Hydroxy-2-{5-[3-(2-methoxy-phenyl)-4-methyl-1H-pyrrolo[2,3-b]pyridin-5-yl]-pyridin-3-yl}-N,N-dimethyl-acetamide]: the GI50 on ABL T315I BAF3 cells and on ABL P210WT BAF3 cells was 0.01 to 0.1 µM in each case. The “ABL_T315I_0P (IC50)” value in assay [1] is recorded as “D (<0.01 μM)”.
Take `Nc1ncc(-c2cnc3[nH]cc(-c4cccc(F)c4)c3c2Cl)cc1C(=O)N1CC(O)C1` [{2-Amino-5-[4-chloro-3-(3-fluoro-phenyl)-1H-pyrrolo[2,3-b]pyridin-5-yl]-pyridin-3-yl}-(3-hydroxy-azetidin-1-yl)-methanone]: the GI50 on ABL T315I BAF3 cells and at ABL P210WT BAF3 cells was 0.1 to 1 µM in each case. In assay [1], the “ABL_T315I_0P (IC50)” value is “D (<0.01 μM)”.
For the compound `COc1ccccc1-c1c[nH]c2ncc(-c3ccc(N)c(C(=O)N(C)C)c3)c(Cl)c12` [2-Amino-5-[4-chloro-3-(2-methoxy-phenyl)-1H-pyrrolo[2,3-b]pyridin-5-yl]-N,N-dimethyl-benzamide], the GI50 on ABL T315I BAF3 cells and at ABL P210WT BAF3 cells was below 0.01 µM throughout. Further, the “ABL_T315I_0P (IC50)” value in assay [1] is given as “D (<0.01 μM)”.
For `COc1ccccc1-c1c[nH]c2ncc(-c3cncc(C(O)C(=O)N(C)C)c3)c(Cl)c12` (stereo not drawn) [2-{5-[4-Chloro-3-(2-methoxy-phenyl)-1H-pyrrolo[2,3-b]pyridin-5-yl]-pyridin-3-yl}-2-hydroxy-N,N-dimethyl-acetamide], the GI50 on ABL T315I BAF3 cells and on ABL P210WT BAF3 cells was below 0.01 µM throughout. The “ABL_T315I_0P (IC50)” value in assay [1] was “D (<0.01 μM)”.
In the case of `CN(C)C(=O)C(O)c1cncc(-c2cnc3[nH]cc(-c4ccccc4)c3c2Cl)c1` (stereo not drawn) [2-[5-(4-Chloro-3-phenyl-1H-pyrrolo[2,3-b]pyridin-5-yl)-pyridin-3-yl]-2-hydroxy-N,N-dimethyl-acetamide], the GI50 at ABL T315I BAF3 cells and on ABL P210WT BAF3 cells was 0.1 to 1 µM in each case. Besides, the “ABL_T315I_0P (IC50)” value in assay [1] is given as “D (<0.01 μM)”.
Take `CNC(=O)c1cncc(-c2cnc3[nH]cc(-c4ccccc4F)c3c2Cl)n1`: the GI50 at ABL T315I BAF3 cells and at ABL P210WT BAF3 cells was above 1 µM throughout. The “ABL_T315I_0P (IC50)” value in assay [1] is on record as “C (0.1-0.01 μM)”.
Take `CSc1ccccc1-c1c[nH]c2ncc(-c3cncc(C(=O)N(C)C)c3)c(Cl)c12` [5-[4-Chloro-3-(2-methylsulfanyl-phenyl)-1H-pyrrolo[2,3-b]pyridin-5-yl]-N,N-dimethyl-nicotinamide]: the GI50 at ABL T315I BAF3 cells and on ABL P210WT BAF3 cells was above 1 µM in each case. In addition, in assay [1], the “ABL_T315I_0P (IC50)” value was “D (<0.01 μM)”.
`CN(C)C1CCN(C(=O)c2cc(-c3cnc4[nH]cc(-c5cccc(F)c5)c4c3Cl)cnc2N)C1` (stereo not drawn) [{2-Amino-5-[4-chloro-3-(3-fluoro-phenyl)-1H-pyrrolo[2,3-b]pyridin-5-yl]-pyridin-3-yl}-(3-dimethylamino-pyrrolidin-1-yl)-methanone]: the GI50 at ABL T315I BAF3 cells and on ABL P210WT BAF3 cells was 0.1 to 1 µM each time. In addition, the “ABL_T315I_0P (IC50)” value in assay [1] was “D (<0.01 μM)”.
`OC(c1cccc(-c2cnc3[nH]cc(-c4ccc(F)cc4)c3c2Cl)c1)c1ncco1` (stereo not drawn) [{3-[4-Chloro-3-(4-fluoro-phenyl)-1H-pyrrolo[2,3-b]pyridin-5-yl]-phenyl}-oxazol-2-yl-methanol]: the GI50 at ABL T315I BAF3 cells and on ABL P210WT BAF3 cells was above 1 µM throughout. For the same compound, in assay [1], the “ABL_T315I_0P (IC50)” value is reported as “C (0.1-0.01 μM)”.
